# Measurements published in patent publication US7262280B1, “G-protein fusion receptors and constructs encoding same” (NPS Pharmaceuticals, Inc., priority 1998, dated 2007).
# Key:
# Assay type in all cases: cell-based
# CaR/mGluR2*Gqi5 = target: T1, CaR/mGluR2*Gqi5 (Homo sapiens, UniProt P41180); experiment: Calcium-activated chloride current in Xenopus oocytes injected with G-protein fusion receptor cRNA; conditions: 100 μM, Xenopus laevis oocytes, holding −60 mV, FIG. 15
# T1 construct: expressed in transfected cells; host or cells: Xenopus laevis oocytes injected with fusion receptor cRNA
# T1 sequence (P41180 with tags, fused parts or gaps): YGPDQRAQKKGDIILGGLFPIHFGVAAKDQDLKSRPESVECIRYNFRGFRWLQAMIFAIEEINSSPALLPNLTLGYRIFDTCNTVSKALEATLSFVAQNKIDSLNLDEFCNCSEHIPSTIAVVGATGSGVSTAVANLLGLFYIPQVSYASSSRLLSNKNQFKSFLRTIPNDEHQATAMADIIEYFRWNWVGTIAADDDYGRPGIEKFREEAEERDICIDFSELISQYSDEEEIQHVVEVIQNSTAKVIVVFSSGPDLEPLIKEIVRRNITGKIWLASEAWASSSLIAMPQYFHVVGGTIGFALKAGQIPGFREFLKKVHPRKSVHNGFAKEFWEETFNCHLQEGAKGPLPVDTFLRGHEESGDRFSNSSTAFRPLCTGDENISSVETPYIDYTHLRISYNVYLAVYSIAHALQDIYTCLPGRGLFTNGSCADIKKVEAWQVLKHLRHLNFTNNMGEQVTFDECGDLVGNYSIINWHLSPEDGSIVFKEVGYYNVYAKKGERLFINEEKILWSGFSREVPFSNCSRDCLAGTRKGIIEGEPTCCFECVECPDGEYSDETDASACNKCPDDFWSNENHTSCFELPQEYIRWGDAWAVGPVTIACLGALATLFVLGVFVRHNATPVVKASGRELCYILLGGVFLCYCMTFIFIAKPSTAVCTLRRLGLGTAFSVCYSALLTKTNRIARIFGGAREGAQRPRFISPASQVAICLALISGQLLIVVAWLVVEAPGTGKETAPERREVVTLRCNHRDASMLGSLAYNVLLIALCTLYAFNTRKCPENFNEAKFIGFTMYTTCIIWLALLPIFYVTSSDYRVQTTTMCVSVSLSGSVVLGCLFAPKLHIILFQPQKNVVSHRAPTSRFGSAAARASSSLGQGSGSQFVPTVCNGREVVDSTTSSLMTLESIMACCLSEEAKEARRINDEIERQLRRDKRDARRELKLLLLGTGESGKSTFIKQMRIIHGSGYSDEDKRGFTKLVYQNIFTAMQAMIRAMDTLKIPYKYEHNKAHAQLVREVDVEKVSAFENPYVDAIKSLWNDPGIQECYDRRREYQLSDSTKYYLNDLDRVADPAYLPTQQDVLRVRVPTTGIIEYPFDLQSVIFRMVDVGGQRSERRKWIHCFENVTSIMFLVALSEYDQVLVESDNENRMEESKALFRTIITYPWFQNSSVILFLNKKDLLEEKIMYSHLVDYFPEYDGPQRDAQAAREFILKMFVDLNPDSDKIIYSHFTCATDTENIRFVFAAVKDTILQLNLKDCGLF
# Experimental: (§1) The different G-protein fusion receptors used in this example were as follows: mGluR2//CaR*Gqi5 (SEQ. ID. NO. 37), CaR/mGluR2*Gqi5 (SEQ. ID. NO. 33), and mGluR8//CaR*Gqi5 SEQ. ID. NO. 41.
# (§2) Oocytes suitable for injection were obtained from adult female Xenopus laevis toads using procedures described in C. J. Marcus-Sekura and M. J. M. Hitchcock, Methods in Enzymology, Vol. 152 (1987).
# (§3) Receptor fusion cRNAs were dissolved in water and 50 nl (12.5 ng/oocyte) were injected into individual oocytes. Following injection, oocytes were incubated at 16° C. in MBS containing 1 mM CaCl2 for two to seven days prior to electrophysiological recording.
# (§4) Test substances were applied by superfusion at a flow rate of about 5 ml/minute. Receptor fusion activation was determined by measuring the increase in calcium-activated chloride current (ICl). Increases in ICl were quantified by measuring the peak inward current stimulated by activating agent, relative to the holding current at −60 mV. […] Application of 100 μM Gd^3+ activated the CaR/mGluR2*Gqi5.
# [1] = target: T2, chimeric CaR/GABABR2 (CaR extracellular and transmembrane domains, and intracellular GABABR2 domain) (Homo sapiens, UniProt O75899+P41180); experiment: Calcium-activated chloride current in Xenopus oocytes co-injected with chimeric CaR/GABABR2 RNA and Gα15 RNA; conditions: 100 μM, voltage-clamped, 72-hour incubation, FIG. 8
# T2 construct: chimeric CaR/GABABR2 (CaR extracellular and transmembrane domains, and intracellular GABABR2 domain); GABABR2 intracellular domain (fusion partner replacing the CaR tail); expressed in transfected cells; host or cells: Xenopus oocytes injected with in vitro-transcribed RNA
# T2 sequence (P41180+O75899 with tags, fused parts or gaps): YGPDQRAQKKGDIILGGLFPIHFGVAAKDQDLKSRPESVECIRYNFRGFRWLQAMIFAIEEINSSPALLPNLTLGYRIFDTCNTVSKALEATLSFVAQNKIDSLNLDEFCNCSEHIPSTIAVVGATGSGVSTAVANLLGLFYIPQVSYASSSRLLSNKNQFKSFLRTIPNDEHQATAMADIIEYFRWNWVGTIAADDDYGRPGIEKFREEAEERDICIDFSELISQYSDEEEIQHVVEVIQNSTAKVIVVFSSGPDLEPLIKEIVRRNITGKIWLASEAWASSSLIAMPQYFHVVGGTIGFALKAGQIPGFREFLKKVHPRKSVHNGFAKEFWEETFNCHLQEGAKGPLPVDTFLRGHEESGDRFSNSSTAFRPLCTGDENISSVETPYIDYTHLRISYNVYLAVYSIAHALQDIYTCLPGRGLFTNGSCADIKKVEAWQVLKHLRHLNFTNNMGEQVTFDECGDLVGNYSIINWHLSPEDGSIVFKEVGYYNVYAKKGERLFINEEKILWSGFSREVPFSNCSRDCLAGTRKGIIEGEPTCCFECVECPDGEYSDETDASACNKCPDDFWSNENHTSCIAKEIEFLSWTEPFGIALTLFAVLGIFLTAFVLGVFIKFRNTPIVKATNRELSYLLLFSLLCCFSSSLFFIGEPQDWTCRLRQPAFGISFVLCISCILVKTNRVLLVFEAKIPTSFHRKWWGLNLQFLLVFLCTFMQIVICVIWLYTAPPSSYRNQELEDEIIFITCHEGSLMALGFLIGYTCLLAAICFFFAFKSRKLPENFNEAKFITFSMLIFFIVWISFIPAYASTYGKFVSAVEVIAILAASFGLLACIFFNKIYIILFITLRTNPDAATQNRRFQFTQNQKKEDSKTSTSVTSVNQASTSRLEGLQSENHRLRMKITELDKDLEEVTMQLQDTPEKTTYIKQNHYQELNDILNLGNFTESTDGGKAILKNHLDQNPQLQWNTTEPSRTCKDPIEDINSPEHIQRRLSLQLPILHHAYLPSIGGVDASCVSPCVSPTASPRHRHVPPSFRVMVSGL
# Experimental: FIG. 8 illustrates the ability of a chimeric CaR/GABABR2 (CaR extracellular and transmembrane domains, and intracellular GABABR2 domain) to transduce a signal. Signal production was measured by detecting an increase in the calcium-activated chloride current. The line in the middle of the increase signifies a wash step.
# In vitro-transcribed RNA (7 ng) encoding a chimeric CaR/GABABR2 (CaR extracellular and transmembrane domains, and intracellular GABABR2 domain) was co-injected with in vitro-transcribed RNA (2 ng) encoding Gα15 into Xenopus oocytes. Following a 72-hour incubation, the oocytes were voltage-clamped using standard electrophysiological techniques (B. Hille, Ionic Channels of Exictable Membranes, pp. 30-33, Sinauer Associates, Inc., Sunderland, Ma., 1992). Activation of the chimeric receptor was detected by increases in the calcium-activated chloride current.
# In this assay, the Gα15 subunit acts to promote signal transduction through intracellular pathways that mobilize intracellular Ca^++.
# mGluR2//CaR*Gαqi5 = mGluR2//CaR*Gαqi5 (Homo sapiens, UniProt Q14416, L8P); experiment: Calcium-activated chloride current in Xenopus oocytes injected with G-protein fusion receptor cRNA; conditions: 100 μM, Xenopus laevis oocytes, holding −60 mV, FIG. 15
# Chain of mGluR2//CaR*Gαqi5 (Q14416 with tags, fused parts or gaps L8P): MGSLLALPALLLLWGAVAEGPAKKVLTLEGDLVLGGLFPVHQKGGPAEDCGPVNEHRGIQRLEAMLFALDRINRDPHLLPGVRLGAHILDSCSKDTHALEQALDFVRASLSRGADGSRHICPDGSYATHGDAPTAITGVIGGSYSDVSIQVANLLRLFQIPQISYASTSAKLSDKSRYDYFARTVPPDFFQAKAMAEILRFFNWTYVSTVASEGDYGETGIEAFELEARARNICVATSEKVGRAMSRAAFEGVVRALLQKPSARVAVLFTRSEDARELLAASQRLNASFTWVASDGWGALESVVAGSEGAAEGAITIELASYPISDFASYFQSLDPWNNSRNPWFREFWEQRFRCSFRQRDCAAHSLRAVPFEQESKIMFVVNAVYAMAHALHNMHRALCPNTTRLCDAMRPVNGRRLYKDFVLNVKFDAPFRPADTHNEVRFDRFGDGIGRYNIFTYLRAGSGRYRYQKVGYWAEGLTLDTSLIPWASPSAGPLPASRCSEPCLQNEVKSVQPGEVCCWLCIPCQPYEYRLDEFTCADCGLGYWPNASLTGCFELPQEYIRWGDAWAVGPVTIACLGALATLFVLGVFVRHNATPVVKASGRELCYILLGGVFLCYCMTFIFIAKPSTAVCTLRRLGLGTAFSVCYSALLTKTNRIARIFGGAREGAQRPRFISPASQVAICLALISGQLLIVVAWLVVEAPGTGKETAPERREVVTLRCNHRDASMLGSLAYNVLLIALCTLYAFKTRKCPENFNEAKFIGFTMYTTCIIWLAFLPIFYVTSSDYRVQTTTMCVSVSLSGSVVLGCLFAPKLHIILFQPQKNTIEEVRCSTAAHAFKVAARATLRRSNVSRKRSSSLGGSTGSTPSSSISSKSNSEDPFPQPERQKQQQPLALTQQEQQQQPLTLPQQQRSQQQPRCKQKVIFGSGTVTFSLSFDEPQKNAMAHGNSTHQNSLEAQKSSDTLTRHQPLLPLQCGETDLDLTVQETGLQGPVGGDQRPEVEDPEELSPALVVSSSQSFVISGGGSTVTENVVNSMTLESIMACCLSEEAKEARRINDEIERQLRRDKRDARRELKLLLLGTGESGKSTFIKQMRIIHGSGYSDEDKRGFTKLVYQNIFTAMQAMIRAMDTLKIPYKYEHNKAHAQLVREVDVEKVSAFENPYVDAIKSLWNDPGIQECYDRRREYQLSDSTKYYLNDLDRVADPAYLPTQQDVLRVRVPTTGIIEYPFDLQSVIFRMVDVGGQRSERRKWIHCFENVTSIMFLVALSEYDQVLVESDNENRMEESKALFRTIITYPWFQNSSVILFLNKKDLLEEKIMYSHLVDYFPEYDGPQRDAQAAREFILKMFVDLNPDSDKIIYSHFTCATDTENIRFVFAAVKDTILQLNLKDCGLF
# mGluR8//CaR*Gαqi5 = target: T3, mGluR8//CaR*Gαqi5 (Homo sapiens, UniProt O00222); experiment: as above; conditions: 100 μM, Xenopus laevis oocytes, holding −60 mV, FIG. 15
# T3 construct: ID; NO; 41; expressed in transfected cells; host or cells: Xenopus laevis oocytes injected with fusion receptor cRNA
# T3 sequence (O00222 with tags, fused parts or gaps): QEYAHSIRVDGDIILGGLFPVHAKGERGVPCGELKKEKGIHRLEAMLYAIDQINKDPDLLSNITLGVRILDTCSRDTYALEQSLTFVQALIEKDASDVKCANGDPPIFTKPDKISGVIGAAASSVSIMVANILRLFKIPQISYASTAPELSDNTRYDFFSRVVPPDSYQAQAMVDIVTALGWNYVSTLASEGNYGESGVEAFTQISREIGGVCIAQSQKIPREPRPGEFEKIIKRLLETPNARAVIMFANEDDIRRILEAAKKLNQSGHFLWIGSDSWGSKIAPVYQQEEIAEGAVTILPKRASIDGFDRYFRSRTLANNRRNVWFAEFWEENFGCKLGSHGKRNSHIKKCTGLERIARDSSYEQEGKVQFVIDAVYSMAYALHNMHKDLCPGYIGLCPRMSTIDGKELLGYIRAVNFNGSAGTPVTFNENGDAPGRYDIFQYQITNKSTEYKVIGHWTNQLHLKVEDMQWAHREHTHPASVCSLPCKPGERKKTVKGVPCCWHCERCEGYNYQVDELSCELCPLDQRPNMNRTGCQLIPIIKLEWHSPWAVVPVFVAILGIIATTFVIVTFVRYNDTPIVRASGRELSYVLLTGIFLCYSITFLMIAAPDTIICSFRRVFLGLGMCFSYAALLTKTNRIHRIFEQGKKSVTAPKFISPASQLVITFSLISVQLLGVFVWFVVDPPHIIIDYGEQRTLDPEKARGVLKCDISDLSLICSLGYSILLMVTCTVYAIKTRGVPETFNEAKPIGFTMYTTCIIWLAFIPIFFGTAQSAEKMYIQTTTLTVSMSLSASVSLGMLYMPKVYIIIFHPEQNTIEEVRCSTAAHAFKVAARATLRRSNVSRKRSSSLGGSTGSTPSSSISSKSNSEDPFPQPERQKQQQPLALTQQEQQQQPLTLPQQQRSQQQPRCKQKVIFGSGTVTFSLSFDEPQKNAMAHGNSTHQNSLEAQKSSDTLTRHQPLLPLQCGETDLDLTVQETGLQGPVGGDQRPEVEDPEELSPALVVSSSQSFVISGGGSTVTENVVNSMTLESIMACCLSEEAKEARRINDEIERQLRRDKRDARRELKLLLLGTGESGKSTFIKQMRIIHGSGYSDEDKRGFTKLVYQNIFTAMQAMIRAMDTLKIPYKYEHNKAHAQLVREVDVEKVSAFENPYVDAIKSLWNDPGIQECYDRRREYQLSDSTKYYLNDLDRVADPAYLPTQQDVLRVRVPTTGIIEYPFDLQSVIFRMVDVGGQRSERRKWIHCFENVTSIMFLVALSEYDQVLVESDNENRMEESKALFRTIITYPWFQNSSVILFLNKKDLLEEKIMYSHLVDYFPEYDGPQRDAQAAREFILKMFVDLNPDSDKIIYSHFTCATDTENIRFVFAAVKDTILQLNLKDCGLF
# Experimental: as §1, §2, §3, §4
compound,measurement,setting,value
[Gd+3] [Gd^3+],"receptor fusion activation, increase in calcium-activated chloride current (ICl)",CaR/mGluR2*Gqi5,activated
same,activation of the chimeric receptor detected by increases in the calcium-activated chloride current,[1],"reversible, oscillatory increases in the calcium-activated chloride current"
N[C@@H](CCC(=O)O)C(=O)O [L-glutamate],"receptor fusion activation, increase in calcium-activated chloride current (ICl)",mGluR2//CaR*Gαqi5,elicited a response
same,"receptor fusion activation, increase in calcium-activated chloride current (ICl)",mGluR8//CaR*Gαqi5,elicited a response
